From patent US7341715B2, “Method and agents on the basis of 2-mercaptopropionic acid amides for durable hair forming and a method for producing same” (Wella AG, priority 2000, dated 2008)

How the values were obtained:
[1] = Comparison of the stabilities of the waves: wave stability (WSN); settings: waving solution 87 mmoles/100 g reducing agent, standardized to glycerin monothioglycolate solution pH 9 = 100%; for WSN pH = 7: pH 7, 20 minutes at 50° C.; for WSN pH = 8: pH 8, 20 minutes at 50° C.; for WSN pH = 9: pH 9, 20 minutes at 50° C.
Experimental: The waving effectiveness of the 1-mercaptopropionamides was determined using glycerin monothioglycolate as comparison substance with the help of waving solutions at a pH of 7, 8 and 9. For this purpose, pre-bleached and therefore damaged counting hair strands (consisting of about 100 hairs) from Middle European hair was wound wet onto standardized spiral curlers (internal diameter of 3 millimeters) and, after being conditioned in an air-conditioned room (temperature: 20° C., relative humidity: 65%), treated with a solution of the reducing agent, containing 87 mmoles/100 g and adjusted to the respective pH. The amount of waving liquid applied was calculated from the ratio of 1:1.2 (1 g of hair: 1.2 mL of waving liquid). A period of action of 20 minutes at a temperature of 50° C. was selected. Subsequently, the hair was fixed with a peroxide-containing material, removed from the curlers and hung up for 4 hours in water (waterbath temperature: 40° C.).
The wave stability (WSN) is calculated from the following formula:
[formula] • 1o=total length of the not shaped, stretched strands (16.5 cm) • 1t=length of the strands, removed from the curlers and suspended, after 240 minutes • 1l=length of the shaped strands on curlers (for curlers with an internal diameter of 3 mm, 1l=35 mm)
As a standard, strands were treated with a glycerin monothioglycolate solution, the pH of which had been adjusted to a value of 9. The standardized wave stabilities, given below in Table 1, relate to this standard solution (pH=9), the wave stability (WSN) of which has been set at 100%.

pKa value = format: physicochemical

Compound	WSN pH = 7 [1] [%]	WSN pH = 8 [1] [%]	WSN pH = 9 [1] [%]	melting point [°C]	pKa (pKa value)
CC(S)C(=O)N1CCCC(O)C1 (stereo not shown)	79	94	89	–	–
CC(S)C(=O)N1CCN(C)CC1 (stereo not shown) [N,N-(4-Methylaza-pentamethylene)-2-mercaptopropionamide]	78	86	78	–	–
COCCN(CCOC)C(=O)C(C)S (stereo not shown) [N,N-Bis-(2-methoxyethyl)-2-mercaptopropionamide]	78	93	91	85	–
CCC(CO)NC(=O)C(C)S (stereo not shown) [N-(1-Hydroxymethylpropyl)-2-mercaptopropionamide]	73	88	85	–	–
COCC(C)NC(=O)C(C)S (stereo not shown) [N-(1-Methoxy-2-propyl)-2-mercaptopropionamide]	91	95	99	60	–
CC(S)C(=O)NCCN (stereo not shown) [N-(2-Aminoethyl)-2-mercaptopropionamide]	61	81	87	–	–
CCN(CC)CCNC(=O)C(C)S (stereo not shown) [N-(2-Diethylaminoethyl)-2-mercaptopropionamide]	71	80	77	74	–
CC(S)C(=O)NCCN(C)C (stereo not shown) [N-(2-Dimethylaminoethyl)-2-mercaptopropionamide]	81	87	83	83	–
CCNCCNC(=O)C(C)S (stereo not shown) [N-(2-Ethylaminoethyl)-2-mercaptopropionamide]	57	82	60	–	–
CCC(O)CNC(=O)C(C)S (stereo not shown) [N-(2-Hydroxy-1-butyl)-2-mercaptopropionamide]	79	91	94	–	–
CC(S)C(=O)NCCO (stereo not shown) [N-(2-Hydroxyethyl)-2-mercaptopropionamide]	84	106	103	–	–
CC(O)CNC(=O)C(C)S (stereo not shown) [N-(2-Hydroxypropyl)-2-mercaptopropionamide]	78	94	94	–	8.37
COCCNC(=O)C(C)S (stereo not shown) [N-(2-Methoxyethy)-2-mercaptopropionamide]	87	99	106	–	–
CC(S)C(=O)NCCN1CCOCC1 (stereo not shown) [N-(2-Morpholinoethyl)-2-mercaptopropionamide]	85	93	92	–	–
CC(S)C(=O)NCCCN (stereo not shown) [N-(3-Aminopropyl)-2-mercaptopropionamide]	67	82	88	–	–
CCN(CC)CCCNC(=O)C(C)S (stereo not shown) [N-(3-Diethylaminopropyl)-2-mercaptopropionamide]	77	73	81	65	–
CC(S)C(=O)NCCCN(C)C (stereo not shown) [N-(3-Dimethylaminopropyl)-2-mercaptopropionamide]	72	83	95	84	–
COCCCNC(=O)C(C)S (stereo not shown) [N-(3-Methoxypropyl)-2-mercaptopropionamide]	79	92	91	97	–
CNCCCNC(=O)C(C)S (stereo not shown) [N-(3-Methylaminopropyl)-2-mercaptopropionamide]	55	73	78	–	–
CCN(CCO)C(=O)C(C)S (stereo not shown) [N-Ethyl,N-(2-hydroxyethyl)-2-mercaptopropionamide]	94	83	114	95	–
CC(S)C(=O)N(CCO)C(C)C (stereo not shown) [N-Isopropyl,N-(2-hydroxyethyl)-2-mercaptopropionamide]	65	88	109	100	–
CC(S)C(=O)N(C)CCO (stereo not shown) [N-Methyl,N-(2-hydroxyethyl)-2-mercaptopropionamide]	72	91	91	95	–
CCCN(CCO)C(=O)C(C)S (stereo not shown) [N-Propyl,N-(2-hydroxyethyl)-2-mercaptopropionamide]	77	89	99	80	–
CC(S)C(=O)NCC1CCCO1 (stereo not shown) [N-Tetrahydrofurfuryl-2-mercaptopropionamide]	85	88	94	82	–
Thiolactic acid [reference compound]	57	50	70	–	–
